The subject of this experiment is MCF7 breast cancer cells. The experiment is described as follows: MCF7 proliferation (acid phosphatase assay and Trypan blue exclusion). Format: cell-based, human. Particulars: 1% α5 for 48 h and 1 μM DOX for 16 h. The procedure:
MCF-7 cells were cultured in DMEM as above and treated with 1% α5 composition for 48 h and 1 μM doxorubicin (DOX; Sigma-Aldrich, Milan, Italy) for 16 h (FIG. 7).
To quantify MCF7 cell growth, acid phosphatase assay was used as described [Yang T T et al. 1996 Anal Biochem. 241(1):103-8]. Briefly, MCF7 cells were placed in 96-well plates at 5,000 to 20,000 cells per well density and treated with 1% α5 (for 48 h) and 1 μM DOX (for 16 h). Culture medium was removed and each well washed once with phosphate-buffered saline (PBS, pH 7.2), and added with 100 μl buffer containing 0.1 M sodium acetate (pH 5.0), 0.1% Triton X-100, and 5 mM p-nitrophenyl phosphate (pNPP). Then, plates were placed in a 37° C. incubator for 2 h. The reaction was stopped with the addition of 10 μl 1 N NaOH, and color development was assessed at 405 nm. Non-enzymatic pNPP hydrolysis was measured in wells without cells.

Consider `COc1cccc2c1C(=O)c1c(O)c3c(c(O)c1C2=O)C[C@@](O)(C(=O)CO)C[C@@H]3O[C@H]1C[C@H](N)[C@H](O)[C@H](C)O1` [DOX, doxorubicin], for which the “anti-proliferative effect of DOX together with the α5 composition” value is “completely unaffected”.
